From PMC3985129 (Journal of laboratory automation, 2013)
“And” between values parts separate entries of the source, which are not always exact repeats. Equal entries are not always repeated.

Experiments:
[1] = Cytotoxicity assay; conditions: human, MMTV-βLa HeLa cells, EC50 (95% confidence interval), Cytotoxicity assay (ATP content)
[2] = molecular target: green coffee bean α-galactosidase A (GLA) (Coffea arabica, UniProt Q42656); assay: α-galactosidase; format: biochemical
[3] = HP D300 - with DMSO backfill, 384-well
[4] = HP D300 - without DMSO backfill, 384-well

green coffee bean α-galactosidase A (GLA), sequence (Q42656 16-378): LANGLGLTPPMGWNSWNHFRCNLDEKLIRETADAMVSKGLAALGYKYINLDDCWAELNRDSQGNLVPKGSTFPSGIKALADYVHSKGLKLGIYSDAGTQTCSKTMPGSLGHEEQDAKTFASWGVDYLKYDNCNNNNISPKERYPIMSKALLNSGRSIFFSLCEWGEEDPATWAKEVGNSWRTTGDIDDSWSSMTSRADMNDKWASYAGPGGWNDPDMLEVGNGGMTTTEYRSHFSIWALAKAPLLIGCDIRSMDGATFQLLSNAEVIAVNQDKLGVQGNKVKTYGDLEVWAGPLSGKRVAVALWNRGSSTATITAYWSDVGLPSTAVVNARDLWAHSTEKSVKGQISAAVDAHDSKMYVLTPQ

`COc1cccc2c1C(=O)c1c(O)c3c(c(O)c1C2=O)C[C@@](O)(C(C)=O)C[C@@H]3O[C@H]1C[C@H](N)[C@H](O)[C@H](C)O1` [Daunorubicin] showed an EC50 at 72 hr [1, 3] of 0.189 µM, an EC50 at 72 hr [1, 4] of 0.252 µM and an EC50 at 72 hr ([1]; Pin tool – 1536-well) of 0.38 µM.
For `Cc1c(OCC(F)(F)F)ccnc1C[S+]([O-])c1nc2ccccc2[nH]1` (centres unmarked) [Lansoprazole, lansoprazole], the EC50 ([2]; EC50 (95% confidence interval), α-galactosidase enzyme assay) was 12 µM and 11.5 µM and 8.95 µM.
`CC/C(=C(\c1ccccc1)c1ccc(OCCN(C)C)cc1)c1ccccc1` [Tamoxifen, tamoxifen] showed an EC50 at 72 hr [1, 3] of 8.77 µM, an EC50 at 72 hr [1, 4] of 9 µM and an EC50 at 72 hr ([1]; Pin tool – 1536-well) of 32.1 µM.
With `CC(=O)[O][Hg][c]1ccccc1` [PMA, phenylmercuric acetate] the “fold more potent in our assay than previously reported” value ([2]; versus previously published value, ref [4]) was > 50 fold.
